# According to patent US5696083A, “Personal care composition containing pyrithione and polymyxin” (Olin Corporation, priority 1994, dated 1997):
# Experiments:
# Format in all cases: cell-based
# [1] = system: Fusarium sp.; assay: MIC in Tryptic Soy Broth, compounds alone and in mixtures; details: Table 2, 28° C., 7 days
# From the text: (§1) ^a Compounds were serially diluted in Tryptic soy Broth (DIFCO),
# (§2) ^b Each dilution contained 10^6 bacteria/ml of 10^5 fungi/ml.
# (§3) ^a Stock solutions of ZP in dimethylsulfoxide and PB in sterile water
# [2] = system: Alcaligens faecalis; assay: as above; details: Table 2, 28° C., 6 days
# Experimental: (§4) Determinations of minimum inhibitory concentrations (MIC's) of the two compounds (pyrithione salts and/or polymyxin sulfate) in a nutrient broth (alone and in mixtures) were conducted to evaluate interactions. Stock solutions of pyrithione salts and/or polymyxin salts were diluted in Tryptic Soy Broth (Difco), and the dilutions were inoculated with an equal volume of bacterial culture (10^6 /ml) or fungal spore suspension (10^5 /ml) in Tryptic Soy Broth and incubated at 28° C. for 3-7 days.
# (§5) The interactions of the antimicrobials were determined according to accepted procedures (M. C. Berenbaum [Tables 1 and 2] and P. F. Dougherty "Microdilution Transfer Plate Technique for Determining In Vitro Synergy of Antimicrobial Agents", ANTIMICROBIAL AGENTS AND CHEMOTHERAPY, Vol. 11, No. 2, p. 225-228 (Feb. 1977, American Society for Microbiology) [Tables 3 and 4]). The concentration of each agent in the combination that inhibits the organisms is expressed as a fraction of the concentration that causes the same effect when the same agent is tested alone (i.e., its fractional inhibitory concentration, FIC). If the sum of the FIC's is 1, the combination is additive in its antimicrobial effect; if the sum is <1, the combination is synergistic; and if the sum is >1, the combination is antagonistic.
# as §1, §2, §3
# [3] = system: Penicillin pinophilium; assay: as above; details: Table 2, 28° C., 7 days
# Experimental: as §4, §5, §1, §2, §3
# [4] = system: Pseudomonas aeruginosa; assay: as above; details: Table 2, 28° C., 6 days
# Experimental: as §4, §5, §1, §2, §3
# [5] = system: Proteus mirabilis; assay: as above; details: Table 2, 28° C., 6 days
# Experimental: as §4, §5, §1, §2, §3
# [6] = system: Pseudomonas Stutzeri; assay: as above; details: Table 2, 28° C., 6 days
# Experimental: as §4, §5, §1, §2, §3
# [7] = system: Candida albicans; assay: as above; details: Table 2, 28° C., 7 days
# Experimental: as §4, §5, §1, §2, §3
# [8] = system: Aureobasidium pullulans; assay: as above; details: Table 2, 28° C., 7 days
# Experimental: as §4, §5, §1, §2, §3
# [9] = system: Citrobacter freundii; assay: as above; details: Table 2, 28° C., 6 days
# Experimental: as §4, §5, §1, §2, §3
# [10] = system: Aspergillus niger; assay: as above; details: Table 2, 28° C., 7 days
# Experimental: as §4, §5, §1, §2, §3
# [11] = system: Pseudomonas fluorescens; assay: as above; details: Table 2, 28° C., 6 days
# Experimental: as §4, §5, §1, §2, §3
# [12] = system: Fusarium solani; assay: as above; details: Table 2, 28° C., 7 days
# Experimental: as §4, §5, §1, §2, §3
# [13] = system: Pseudomonas rubescens; assay: as above; details: Table 2, 28° C., 6 days
# Experimental: as §4, §5, §1, §2, §3
# [14] = system: Cephalosporium sp.; assay: as above; details: Table 2, 28° C., 7 days
# Experimental: as §4, §5, §1, §2, §3
# [15] = system: Gliocladium virens; assay: as above; details: Table 2, 28° C., 7 days
# Experimental: as §4, §5, §1, §2, §3
# [16] = system: Chaetomium globosium; assay: as above; details: Table 2, 28° C., 7 days
# Experimental: as §4, §5, §1, §2, §3
# [17] = system: Trichophyton mentagrophytes; assay: as above; details: Table 2, 28° C., 7 days
# Experimental: as §4, §5, §1, §2, §3
# [18] = system: Pseudomonas oleovorans; assay: as above; details: Table 2, 28° C., 6 days
# Experimental: as §4, §5, §1, §2, §3
# [19] = system: Pseudomonas aeruginosa; assay: Checkerboard MIC Test in Tryptic Soy Broth; details: Table 4, 28° C., 3 days
# Experimental: as §4, §5, §2
# [20] = system: Proteus mirabilis; assay: Checkerboard MIC Test in Tryptic Soy Broth; details: Table 4, 28° C., 3 days
# Experimental: as §4, §5, §2
# [21] = system: Candida albicans; assay: Checkerboard MIC Test in Tryptic Soy Broth; details: Table 4, 28° C., 5 days
# Experimental: as §4, §5, §2
# [22] = system: Pseudomonas fluorescens; assay: Checkerboard MIC Test in Tryptic Soy Broth; details: Table 4, 28° C., 3 days
# Experimental: as §4, §5, §2
# [23] = system: Trichophyton mentagrophytes; assay: Checkerboard MIC Test in Tryptic Soy Broth; details: Table 4, 28° C., 5 days
# Experimental: as §4, §5, §2
# [24] = alone, Tryptic Soy Broth, PB sulfate 7730 units/mg
# [25] = concentration of the component in ZP+PB mixture, ZP/PB ratio 1/8-1
# [26] = concentration of the component in ZP+PB mixture, ZP/PB ratio 1/32-1/8
# [27] = alone, checkerboard, PE methanesulfonate, Na+, 14,310 units/mg
substance,measurement,setting,value
zinc pyrithione [ZP],"Minimum Inhibitory Concentration, Compound Used Alone",[1]; [24],64.0 ppm
same,"Minimum Inhibitory Concentration, Mixture",[1]; [25],18.7 ppm
same,"Minimum Inhibitory Concentration, Compound Used Alone",[2]; [24],10.7 ppm
same,"Minimum Inhibitory Concentration, Mixture","[2]; concentration of the component in ZP+PB mixture, ZP/PB ratio 8-32",6.7 ppm
same,"Minimum Inhibitory Concentration, Compound Used Alone",[3]; [24],16.0 ppm
same,"Minimum Inhibitory Concentration, Mixture","[3]; concentration of the component in ZP+PB mixture, ZP/PB ratio 1/8",4.0 ppm
same,"Minimum Inhibitory Concentration, Compound Used Alone",[4]; [24],288.0 ppm
same,"Minimum Inhibitory Concentration, Mixture","[4]; concentration of the component in ZP+PB mixture, ZP/PB ratio 128-256",112.0 ppm
same,"Minimum Inhibitory Concentration, Compound Used Alone",[5]; [24],4.0 ppm
same,"Minimum Inhibitory Concentration, Mixture","[5]; concentration of the component in ZP+PB mixture, ZP/PB ratio 1/32",2.0 ppm
same,"Minimum Inhibitory Concentration, Compound Used Alone",[6]; [24],4.0 ppm
same,"Minimum Inhibitory Concentration, Mixture","[6]; concentration of the component in ZP+PB mixture, ZP/PB ratio 16-128",4.0 ppm
same,"Minimum Inhibitory Concentration, Compound Used Alone",[7]; [24],8.0 ppm
same,"Minimum Inhibitory Concentration, Mixture",[7]; [26],4.0 ppm
same,"Minimum Inhibitory Concentration, Compound Used Alone",[8]; [24],8.0 ppm
same,"Minimum Inhibitory Concentration, Mixture","[8]; concentration of the component in ZP+PB mixture, ZP/PB ratio 1/32-1/16",4.0 ppm
same,"Minimum Inhibitory Concentration, Compound Used Alone",[9]; [24],8.0 ppm
same,"Minimum Inhibitory Concentration, Mixture","[9]; concentration of the component in ZP+PB mixture, ZP/PB ratio 16-64",3.3 ppm
same,"Minimum Inhibitory Concentration, Compound Used Alone",[10]; [24],32.0 ppm
same,"Minimum Inhibitory Concentration, Mixture",[10]; [26],16.0 ppm
same,"Minimum Inhibitory Concentration, Compound Used Alone",[11]; [24],106.7 ppm
same,"Minimum Inhibitory Concentration, Mixture","[11]; concentration of the component in ZP+PB mixture, ZP/PB ratio 8-16",4.7 ppm
same,"Minimum Inhibitory Concentration, Compound Used Alone",[12]; [24],64.0 ppm
same,"Minimum Inhibitory Concentration, Mixture",[12]; [25],13.3 ppm
same,"Minimum Inhibitory Concentration, Compound Used Alone",[13]; [24],3.3 ppm
same,"Minimum Inhibitory Concentration, Mixture","[13]; concentration of the component in ZP+PB mixture, ZP/PB ratio 256",3.3 ppm
same,"Minimum Inhibitory Concentration, Compound Used Alone",[14]; [24],16.0 ppm
same,"Minimum Inhibitory Concentration, Mixture","[14]; concentration of the component in ZP+PB mixture, ZP/PB ratio 1/16-1/8",4.0 ppm
same,"Minimum Inhibitory Concentration, Compound Used Alone",[15]; [24],80.0 ppm
same,"Minimum Inhibitory Concentration, Mixture","[15]; concentration of the component in ZP+PB mixture, ZP/PB ratio 1-2",24.0 ppm
same,"Minimum Inhibitory Concentration, Compound Used Alone",[16]; [24],67.0 ppm
same,"Minimum Inhibitory Concentration, Mixture",[16]; [25],13.3 ppm
same,"Minimum Inhibitory Concentration, Compound Used Alone",[17]; [24],8.0 ppm
same,"Minimum Inhibitory Concentration, Mixture","[17]; concentration of the component in ZP+PB mixture, ZP/PB ratio 1/4-1/2",8.0 ppm
same,"Minimum Inhibitory Concentration, Compound Used Alone",[18]; [24],6.7 ppm
same,"Minimum Inhibitory Concentration, Mixture","[18]; concentration of the component in ZP+PB mixture, ZP/PB ratio 16-32",4.0 ppm
same,"Minimum Inhibitory Concentration, Compound Used Alone",[19]; [27],128 ppm
same,"Minimum Inhibitory Concentration, Mixture Range","[19]; concentration of the component in ZP+PE mixtures, ZP/PE range 2-8",16-32 ppm
same,"Minimum Inhibitory Concentration, Compound Used Alone",[20]; [27],8 ppm
same,"Minimum Inhibitory Concentration, Mixture Range","[20]; concentration of the component in ZP+PE mixtures, ZP/PE range 1/1024",4 ppm
same,"Minimum Inhibitory Concentration, Compound Used Alone",[21]; [27],16 ppm
same,"Minimum Inhibitory Concentration, Mixture Range","[21]; concentration of the component in ZP+PE mixtures, ZP/PE range 1/2048-1/4",1-8 ppm
same,"Minimum Inhibitory Concentration, Compound Used Alone",[22]; [27],64 ppm
same,"Minimum Inhibitory Concentration, Mixture Range","[22]; concentration of the component in ZP+PE mixtures, ZP/PE range ≤1/128-4",≤1-16 ppm
same,"Minimum Inhibitory Concentration, Compound Used Alone",[23]; [27],16 ppm
same,"Minimum Inhibitory Concentration, Mixture Range","[23]; concentration of the component in ZP+PE mixtures, ZP/PE range 1/4-4",8-16 ppm
